Assay results as given in US4916065A (priority 1988, dated 1990).
Converted amounts (≈) assume the structure as drawn. Like-named read-outs stand apart in the source and are kept apart here.

Legend:
[1] = system: Cryptococcus neoformans D49; experiment: Antifungal MIC, Sabouraud dextrose agar; format: cell-based
[2] = system: Aspergillus flavus FA21436; experiment: Antifungal MIC, Sabouraud dextrose agar; format: cell-based
[3] = system: Trichophyton mentagrophytes #4329; experiment: Antifungal MIC, Sabouraud dextrose agar; format: cell-based
[4] = system: Petriellidium boydii IF08073; experiment: Antifungal MIC, Sabouraud dextrose agar; format: cell-based; conditions: Scedosporium boydii
Mucor spinosus IF05317 = experiment: Antifungal MIC, Sabouraud dextrose agar; format: cell-based
[5] = system: Cryptococcus neoformans IAM4514; experiment: Antifungal MIC, Sabouraud dextrose agar; format: cell-based
Piricularia oryzae D91 = experiment: microbe, parasite or virus in culture; format: cell-based
[6] = system: Fusarium moniliforme A2284; experiment: Antifungal MIC, Sabouraud dextrose agar; format: cell-based; conditions: Fusarium verticillioides
HCT-116 = experiment: In vitro cytotoxicity; format: cell-based; conditions: Homo sapiens, 72 hours, neutral red, 540 nm
Moser = experiment: In vitro cytotoxicity; format: cell-based; conditions: Homo sapiens; 72 hours, neutral red, 540 nm
[7] = system: DNA synthesis in L1210 cells; experiment: Inhibition of macromolecule synthesis in L1210 leukemia; format: cell-based; conditions: Mus musculus; 3H-thymidine, L1210, 15 min + 60 min, 37° C.
B16-F10 = experiment: In vitro cytotoxicity; format: cell-based, murine; conditions: Mus musculus, 72 hours, neutral red, 540 nm
[8] = system: Protein synthesis in L1210 cells; experiment: Inhibition of macromolecule synthesis in L1210 leukemia; format: cell-based; conditions: Mus musculus; 3H-leucine, L1210, 15 min + 60 min, 37° C.
[9] = system: RNA synthesis in L1210 cells; experiment: as above; format: cell-based; conditions: Mus musculus; 14C-uridine, L1210, 15 min + 60 min, 37° C.
[10] = system: Staphylococcus aureus A20234; experiment: Antibacterial MIC, serial agar dilution; format: cell-based; conditions: aerobic, nutrient agar, kanamycin-resistant
Escherichia coli NIHJ = experiment: Antibacterial MIC, serial agar dilution; format: cell-based; conditions: aerobic, nutrient agar
Solubility = format: physicochemical; conditions: organic solvents such as chloroform, methanol and ethanol
[11] = system: Staphylococcus aureus A15097; experiment: Antibacterial MIC, serial agar dilution; format: cell-based; conditions: aerobic, nutrient agar, methicillin-resistant
Micrococcus luteus 1001 = experiment: Antibacterial MIC, serial agar dilution; format: cell-based; conditions: aerobic, nutrient agar
[12] = system: Aspergillus fumigatus IAM2034; experiment: Antifungal MIC, Sabouraud dextrose agar; format: cell-based
[13] = system: Enterobacter cloacae A9659; experiment: Antibacterial MIC, serial agar dilution; format: cell-based; conditions: aerobic, nutrient agar
[14] = system: Klebsiella pneumoniae A20680; experiment: Antibacterial MIC, serial agar dilution; format: cell-based; conditions: aerobic, nutrient agar, kanamycin-resistant
[15] = system: Clostridium perfringens A9635; experiment: microbe, parasite or virus in culture; format: cell-based
[16] = system: Trichophyton mentagrophytes D155; experiment: Antifungal MIC, Sabouraud dextrose agar; format: cell-based
[17] = system: Peptostreptococcus anaerobius A21905; experiment: Antibacterial MIC, serial agar dilution; format: cell-based
Escherichia coli A9624 = experiment: Antibacterial MIC, serial agar dilution; format: cell-based; conditions: aerobic, nutrient agar, kanamycin-resistant
[18] = system: Pseudomonas aeruginosa A9930; experiment: Antibacterial MIC, serial agar dilution; format: cell-based; conditions: aerobic, nutrient agar
Escherichia coli Juhl = experiment: Antibacterial MIC, serial agar dilution; format: cell-based; conditions: aerobic, nutrient agar
[19] = system: Klebsiella pneumoniae D11; experiment: Antibacterial MIC, serial agar dilution; format: cell-based; conditions: aerobic, nutrient agar
[20] = system: Bacteroides fragilis A22534; experiment: Antibacterial MIC, serial agar dilution; format: cell-based
[21] = system: Staphylococcus epidermidis A22152; experiment: Antibacterial MIC, serial agar dilution; format: cell-based; conditions: aerobic, nutrient agar, kanamycin-resistant
Escherichia coli A20665 = experiment: Antibacterial MIC, serial agar dilution; format: cell-based; conditions: aerobic, nutrient agar, kanamycin-resistant
Canidia albicans IAM4888 = experiment: Antifungal MIC, Sabouraud dextrose agar; format: cell-based
[22] = system: Staphylococcus aureus Smith; experiment: Antibacterial MIC, serial agar dilution; format: cell-based; conditions: aerobic, nutrient agar
fungi = experiment: In vitro antifungal activity, overall spectrum; format: cell-based; conditions: all organisms tested except Cryptococcus neoformans
Canidia albicans A9540 = experiment: Antifungal MIC, Sabouraud dextrose agar; format: cell-based
[23] = system: Escherichia coli A20341-1; experiment: Antibacterial MIC, serial agar dilution; format: cell-based; conditions: A203411, aerobic, nutrient agar, ampicillin-resistant
[24] = system: Serratia marcescens A20222; experiment: Antibacterial MIC, serial agar dilution; format: cell-based; conditions: aerobic, nutrient agar
[25] = system: Propionibacterium acnes A21933; experiment: Antibacterial MIC, serial agar dilution; format: cell-based; conditions: Cutibacterium acnes, anaerobic, GAM agar
P388 leukemia = experiment: Antitumor activity against P388 leukemia (ip); format: in vivo, mice; conditions: for Body weight change on day 4 / MST (median survival time) / T/C: QD × 3, ip
[26] = system: Staphylococcus aureus 209P; experiment: Antibacterial MIC, serial agar dilution; format: cell-based; conditions: aerobic, nutrient agar
[27] = system: Staphylococcus aureus BX1633; experiment: Antibacterial MIC, serial agar dilution; format: cell-based; conditions: aerobic, nutrient agar, ampicillin-resistant
[28] = system: aerobic and anaerobic bacteria; format: cell-based
[29] = system: Enterococcus faecalis A9612; experiment: Antibacterial MIC, serial agar dilution; format: cell-based; conditions: aerobic, nutrient agar
[30] = system: Clostridium difficile A21675; experiment: Antibacterial MIC, serial agar dilution; format: cell-based; conditions: Clostridioides difficile, anaerobic, GAM agar, clindamycin-resistant
[31] = system: Bacteroides fragilis A22693; experiment: Antibacterial MIC, serial agar dilution; format: cell-based; conditions: anaerobic, GAM agar
[32] = system: Staphylococcus epidermidis D153; experiment: Antibacterial MIC, serial agar dilution; format: cell-based; conditions: aerobic, nutrient agar
Proteus vulgaris A9436 = experiment: Antibacterial MIC, serial agar dilution; format: cell-based; conditions: aerobic, nutrient agar
[33] = system: Morganella morganii A9553; experiment: Antibacterial MIC, serial agar dilution; format: cell-based; conditions: aerobic, nutrient agar
[34] = system: Bacillus subtilis PCI-219; experiment: Antibacterial MIC, serial agar dilution; format: cell-based; conditions: PCI219, aerobic, nutrient agar
Proteus mirabilis A9554 = experiment: Antibacterial MIC, serial agar dilution; format: cell-based; conditions: aerobic, nutrient agar

## C[C@@H]1[C@H](O)[C@@H](C)/C=C/C=C/C=C/C=C/C=C/C=C/C=C/[C@H](O[C@@H]2O[C@H](C)[C@@H](O)[C@H](N)[C@@H]2O)C[C@@H]2O[C@](O)(C[C@@H](O)C[C@@H](O)[C@H](O)CC[C@@H](O)C[C@@H](O)CC(=O)O[C@H]1C)C[C@H](O)[C@H]2C(=O)O [Amphotericin B, reference compound]
[1]
  MIC: < 200 ng/mL
[2]
  MIC: 3100 ng/mL (≈ 3.35 µM)
[3]
  MIC: 3100 ng/mL (≈ 3.35 µM)
[4]
  MIC: > 100000 ng/mL
Mucor spinosus IF05317
  MIC: 800 ng/mL (≈ 0.866 µM)
[5]
  MIC: < 200 ng/mL
Piricularia oryzae D91
  MIC: 3100 ng/mL (≈ 3.35 µM)
[6]
  MIC: 12500 ng/mL (≈ 13.5 µM)

## CO[C@@]12[C@H](COC(N)=O)C3=C(C(=O)C(C)=C(N)C3=O)N1C[C@@H]1N[C@@H]12 [Mitomycin C, reference compound]
HCT-116
  IC50: 800 ng/mL (≈ 2.39 µM)
Moser
  IC50: 1200 ng/mL (≈ 3.59 µM)
[7]
  IC50: 1700 ng/mL
B16-F10
  IC50: 500 ng/mL (≈ 1.5 µM)
[8]
  IC50: > 100000 ng/mL
[9]
  IC50: > 100000 ng/mL

## COC1=C(C(=O)O)C(C)C23OC24c2cc(OC(C)=O)c5c(c2NC3C#C/C=C\C#CC14)C(=O)c1c(OC(C)=O)ccc(OC(C)=O)c1C5=O (stereo not drawn) [BU-3420T acetate]
[10]
  MIC: 0.0063 ng/mL
Escherichia coli NIHJ
  MIC: 6.3 ng/mL
Solubility
  solubility in organic solvents compared with BU-3420T: much improved solubility
[11]
  MIC: 0.0063 ng/mL
[1]
  MIC: 800 ng/mL
Micrococcus luteus 1001
  MIC: 0.2 ng/mL
[12]
  MIC: < 50 ng/mL
[13]
  MIC: 6.3 ng/mL
[2]
  MIC: 400 ng/mL
[14]
  MIC: 13 ng/mL
[15]
  MIC: 13 ng/mL
Moser
  IC50: 0.003 ng/mL
[16]
  MIC: 400 ng/mL
[17]
  MIC: 25 ng/mL
Escherichia coli A9624
  MIC: 6.3 ng/mL
[18]
  MIC: 6.3 ng/mL
B16-F10
  IC50: 0.7 ng/mL
Escherichia coli Juhl
  MIC: 6.3 ng/mL
[19]
  MIC: 0.8 ng/mL
[20]
  MIC: 50 ng/mL
[3]
  MIC: 800 ng/mL
[21]
  MIC: 0.013 ng/mL
Escherichia coli A20665
  MIC: 13 ng/mL
Canidia albicans IAM4888
  MIC: 400 ng/mL
[22]
  MIC: 0.0063 ng/mL
fungi
  antifungal activity versus amphotericin B: significantly more potent than amphotericin B
Canidia albicans A9540
  MIC: 200 ng/mL
Mucor spinosus IF05317
  MIC: 200 ng/mL
[5]
  MIC: 800 ng/mL
[23]
  MIC: 25 ng/mL
[24]
  MIC: 6.3 ng/mL
[25]
  MIC: 13 ng/mL
[6]
  MIC: < 50 ng/mL
P388 leukemia; 0.5 mg/kg/day
  Body weight change on day 4: -0.5 g
  MST (median survival time): 13.5 days
  T/C: 135%
P388 leukemia; 1.0 mg/kg/day
  Body weight change on day 4: -0.8 g
  MST (median survival time): 11.0 days
  T/C: 110%
P388 leukemia; P388, ip, QD × 3
  maximum T/C value: 135%
[26]
  MIC: 0.0063 ng/mL
[27]
  MIC: 0.0063 ng/mL
[28]; Gram-negative organisms, versus Gram-positive
  activity against Gram-negative organisms: a little less susceptible
[28]; Gram-positive aerobic bacteria
  activity against Gram-positive aerobic bacteria: intensely potent activity
[28]; anaerobic bacteria
  activity against anaerobic Gram-positive and negative bacteria versus clindamycin: much more active than clindamycin
[28]; kanamycin- and clindamycin-resistant bacteria
  activity against certain kanamycin- and clindamycin-resistant bacteria: susceptible to both compounds
[29]
  MIC: 0.1 ng/mL

## CCC[C@@H]1C[C@@H](C(=O)N[C@@H]([C@H]2O[C@H](SC)[C@H](O)[C@@H](O)[C@H]2O)[C@H](C)Cl)N(C)C1 [Clindamycin, reference compound]
[30]
  MIC: > 100000 ng/mL
[31]
  MIC: 50 ng/mL (≈ 0.118 µM)
[15]
  MIC: 25 ng/mL (≈ 0.0588 µM)
[17]; anaerobic, GAM agar, read-out: MIC
  MIC: 400 ng/mL (≈ 0.941 µM)
[20]; anaerobic, GAM agar, ampicillin-resistant, read-out: MIC
  MIC: 800 ng/mL (≈ 1.88 µM)
[25]
  MIC: 400 ng/mL (≈ 0.941 µM)

## NC[C@H]1O[C@H](O[C@H]2[C@H](O)[C@@H](O[C@H]3O[C@H](CO)[C@@H](O)[C@H](N)[C@H]3O)[C@H](N)C[C@@H]2N)[C@H](O)[C@@H](O)[C@@H]1O [Kanamycin A, reference compound]
[10]
  MIC: 100000 ng/mL (≈ 206 µM)
Escherichia coli NIHJ
  MIC: 1600 ng/mL (≈ 3.3 µM)
[32]
  MIC: 400 ng/mL (≈ 0.826 µM)
[11]
  MIC: 800 ng/mL (≈ 1.65 µM)
Micrococcus luteus 1001
  MIC: 3100 ng/mL (≈ 6.4 µM)
[13]
  MIC: 3100 ng/mL (≈ 6.4 µM)
[14]
  MIC: > 100000 ng/mL
Escherichia coli A9624
  MIC: > 100000 ng/mL
[18]
  MIC: 25000 ng/mL (≈ 51.6 µM)
Escherichia coli Juhl
  MIC: 6300 ng/mL (≈ 13 µM)
[19]
  MIC: 400 ng/mL (≈ 0.826 µM)
Proteus vulgaris A9436
  MIC: 400 ng/mL (≈ 0.826 µM)
[21]
  MIC: 12500 ng/mL (≈ 25.8 µM)
Escherichia coli A20665
  MIC: > 100000 ng/mL
[33]
  MIC: 3100 ng/mL (≈ 6.4 µM)
[34]
  MIC: 200 ng/mL (≈ 0.413 µM)
[22]
  MIC: 800 ng/mL (≈ 1.65 µM)
Proteus mirabilis A9554
  MIC: 3100 ng/mL (≈ 6.4 µM)
[23]
  MIC: 6300 ng/mL (≈ 13 µM)
[24]
  MIC: 6300 ng/mL (≈ 13 µM)
[26]
  MIC: 200 ng/mL (≈ 0.413 µM)
[27]
  MIC: 800 ng/mL (≈ 1.65 µM)
[29]
  MIC: 25000 ng/mL (≈ 51.6 µM)
